Read-outs that look alike come from different tables or passages of the source. Each block holds one molecule with its values, some of them ahead of it.
Experiments:
[1] = molecular target: T1, CDK2/CycE (Homo sapiens, UniProt P24941); assay: CDK2/CycE kinase assay; format: biochemical
T1 construct: GST; purchased ProQinase GmbH, Freiburg; host or cells: baculovirus-infected insect cells (Sf9)
Description: Recombinant CDK2- and CycE-GST-fusion proteins, purified from baculovirus-infected insect cells (Sf9), were purchased from ProQinase GmbH, Freiburg. Histone IIIS, which was used as a kinase substrate, was purchased from the Sigma Company.
The reaction was stopped by adding EDTA solution (250 mmol, pH 8.0, 14 μl/measuring point).
From each reaction batch, 10 μl was applied to P30 filter strips (Wallac Company), and non-incorporated ^33P-ATP was removed by subjecting the filter strips to three washing cycles for 10 minutes each in 0.5% phosphoric acid. After the filter strips were dried for one hour at 70° C., the filter strips were covered with scintillator strips (MeltiLex™ A, Wallac Company) and baked for one hour at 90° C. The amount of incorporated ^33P (substrate phosphorylation) was determined by scintillation measurement in a gamma-radiation measuring device (Wallac).

[2] = molecular target: T2, CDK1/CycB (Homo sapiens, UniProt P06493); assay: CDK1/CycB kinase assay; format: biochemical; conditions: Table I
T2 construct: GST; purchased ProQinase GmbH, Freiburg; host or cells: baculovirus-infected insect cells (Sf9)
T2 sequence (P06493 whole entry): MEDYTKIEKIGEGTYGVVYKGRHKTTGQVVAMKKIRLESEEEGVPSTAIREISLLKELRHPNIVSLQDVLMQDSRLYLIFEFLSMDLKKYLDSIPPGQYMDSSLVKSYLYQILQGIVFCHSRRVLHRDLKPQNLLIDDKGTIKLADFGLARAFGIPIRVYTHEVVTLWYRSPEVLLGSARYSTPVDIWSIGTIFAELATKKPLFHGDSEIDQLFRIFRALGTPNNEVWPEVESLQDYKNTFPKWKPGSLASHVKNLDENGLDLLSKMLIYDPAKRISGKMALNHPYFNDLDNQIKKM
T2 sequence (P14635 whole entry partner): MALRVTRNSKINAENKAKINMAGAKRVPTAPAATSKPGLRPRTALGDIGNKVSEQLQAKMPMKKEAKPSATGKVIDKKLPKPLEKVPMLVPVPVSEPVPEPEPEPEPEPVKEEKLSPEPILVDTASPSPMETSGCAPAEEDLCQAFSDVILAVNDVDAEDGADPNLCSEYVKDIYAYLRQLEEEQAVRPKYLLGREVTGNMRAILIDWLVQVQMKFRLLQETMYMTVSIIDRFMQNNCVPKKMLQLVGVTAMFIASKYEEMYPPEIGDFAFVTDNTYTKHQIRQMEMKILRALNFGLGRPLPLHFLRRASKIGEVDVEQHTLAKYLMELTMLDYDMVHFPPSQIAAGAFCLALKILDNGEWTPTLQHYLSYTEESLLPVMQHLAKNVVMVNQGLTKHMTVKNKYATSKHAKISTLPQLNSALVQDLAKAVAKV
Description: Recombinant CDK1- and CycB-GST fusion proteins, purified from baculovirus-infected insect cells (Sf9), were purchased from ProQinase GmbH, Freiburg. Histone IIIS, which was used as a kinase substrate, is commercially available from the Sigma Company.
CDK1/CycB (200 ng/measuring point) was incubated for 15 minutes at 22° C. in the presence of various concentrations of test substances (0 μm, as well as within the range of 0.01-100 μm) in assay buffer [50 mmol of tris/HCl, pH 8.0, 10 mmol of MgCl2, 0.1 mmol of Na ortho-vanadate, 1.0 mmol of dithiothreitol, 0.5 μm of adenosine triphosphate (ATP), 10 μg/measuring point of histone IIIS, 0.2 μCi/measuring point of 33P-gamma ATP, 0.05% NP40, 12.5% dimethyl sulfoxide]. The reaction was stopped by adding EDTA solution (250 mmol, pH 8.0, 14 μl/measuring point).
From each reaction batch, 10 μl was applied to P30 filter strips (Wallac Company), and non-incorporated 33P-ATP was removed by three washing cycles of the filter strips for 10 minutes each in 0.5% phosphoric acid. After the filter strips were dried for 1 hour at 70° C., the filter strips were covered with scintillator strips (MeltiLex™ A, Wallac Company) and baked for one hour at 90° C. The amount of incorporated 33P (substrate phosphorylation) was determined by scintillation measurement in a gamma-radiation measuring device (Wallac).

[3] = tested on: MCF7; assay: Proliferation assay MCF7; format: cell-based; conditions: Homo sapiens, MCF7, 96 h, 4 days incubation, crystal violet
Text: (§1) Cultivated human tumor cells (MCF7, […] human breast cancer cells, relative to ATCC HTB22; NCI-H460, human non-small-cell lung cancer cells, ATCC HTB-177, HCT 116, human colon cancer cells, ATCC CCL-247; DU 145, hormone-independent human prostate cancer cells, ATCC HTB-81; MaTu-MDR, hormone-independent, multiple pharmaceutical agent-resistant human breast cancer cells, EPO-GmbH, Berlin) were flattened out at a density of about 5000 cells/measuring point, depending on growth rates of the respective cells in a 96-well multititer plate in 200 μl of the corresponding growth medium. After 24 hours, the cells of one plate (zero-point plate) were colored with crystal violet (see below), while the medium of the other plates was replaced by fresh culture medium (200 μl), to which the test substances were added at various concentrations (0 μmol, as well as in the range of 0.01-30 μmol; the final concentration of the solvent dimethyl sulfoxide was 0.5%). The cells were incubated for 4 days in the presence of test substances. The cell proliferation was determined by coloring the cells with crystal violet: the cells were fixed by adding 20 μl/measuring point of an 11% glutaric aldehyde solution for 15 minutes at room temperature. After three washing cycles of the fixed cells with water, the plates were dried at room temperature. The cells were colored by adding 100 μl/measuring point of a 0.1% crystal violet solution (pH was set at 3 by adding acetic acid). After three washing cycles of the colored cells with water, the plates were dried at room temperature. The dye was dissolved by adding 100 μl/measuring point of a 10% acetic acid solution. The extinction was determined by photometry at a wavelength of 595 nm. The change of cell growth, in percent, was calculated by standardization of the measured values to the extinction values of the zero-point plate (=0%) and the extinction of the untreated (0 μm) cells (=100%).

[4] = molecular target: T3, VEGF Receptor tyrosine kinase-2 (Homo sapiens, UniProt P35968); assay: VEGF Rezeptor-2 kinase assay; format: biochemical; conditions: Table I; read-out: VEGF-R2 IC50
T3 construct: GST; made in house; host or cells: baculovirus-infected insect cells (Sf9)
T3 sequence (P35968 20-1356): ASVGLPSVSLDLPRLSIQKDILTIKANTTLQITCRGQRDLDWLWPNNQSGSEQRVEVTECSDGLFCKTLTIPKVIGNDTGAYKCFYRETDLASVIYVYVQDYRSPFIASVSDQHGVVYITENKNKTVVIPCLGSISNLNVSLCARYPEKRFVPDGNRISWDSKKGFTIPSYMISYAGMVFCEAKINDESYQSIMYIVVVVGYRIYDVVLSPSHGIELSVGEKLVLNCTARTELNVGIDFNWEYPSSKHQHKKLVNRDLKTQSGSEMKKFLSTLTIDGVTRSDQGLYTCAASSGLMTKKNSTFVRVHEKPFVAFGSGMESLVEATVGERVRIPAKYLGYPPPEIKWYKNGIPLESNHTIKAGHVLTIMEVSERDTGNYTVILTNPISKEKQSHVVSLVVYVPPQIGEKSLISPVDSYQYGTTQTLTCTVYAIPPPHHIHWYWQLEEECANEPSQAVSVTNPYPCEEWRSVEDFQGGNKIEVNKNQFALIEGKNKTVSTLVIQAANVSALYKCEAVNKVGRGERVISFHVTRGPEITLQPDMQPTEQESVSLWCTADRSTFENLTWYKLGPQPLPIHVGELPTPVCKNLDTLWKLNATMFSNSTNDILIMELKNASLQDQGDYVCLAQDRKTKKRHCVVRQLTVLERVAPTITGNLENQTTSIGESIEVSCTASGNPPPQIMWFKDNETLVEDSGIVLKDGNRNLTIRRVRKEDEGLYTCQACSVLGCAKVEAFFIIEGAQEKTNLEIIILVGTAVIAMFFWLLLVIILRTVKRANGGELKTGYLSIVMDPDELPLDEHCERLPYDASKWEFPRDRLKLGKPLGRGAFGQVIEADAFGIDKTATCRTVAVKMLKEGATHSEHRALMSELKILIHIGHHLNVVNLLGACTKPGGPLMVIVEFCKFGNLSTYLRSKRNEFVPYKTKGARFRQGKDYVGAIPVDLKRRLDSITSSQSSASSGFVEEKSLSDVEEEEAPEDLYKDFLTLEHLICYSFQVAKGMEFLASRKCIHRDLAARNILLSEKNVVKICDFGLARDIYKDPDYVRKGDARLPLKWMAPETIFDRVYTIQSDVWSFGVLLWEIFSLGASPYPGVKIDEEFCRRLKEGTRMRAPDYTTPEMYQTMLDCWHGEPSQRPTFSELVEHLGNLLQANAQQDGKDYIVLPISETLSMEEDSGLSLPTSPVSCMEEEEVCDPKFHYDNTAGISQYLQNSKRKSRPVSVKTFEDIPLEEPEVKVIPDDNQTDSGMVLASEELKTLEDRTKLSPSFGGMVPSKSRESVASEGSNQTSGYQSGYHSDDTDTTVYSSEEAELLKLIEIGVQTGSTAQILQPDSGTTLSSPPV
Description: VEGF Rezeptor-2 Kinase Assay
Recombinant VEGF Receptor tyrosine kinase-2 was purified as GST-fusion protein from baculovirus-infected insect cells (Sf9). Poly-(Glu4Tyr), which was used as a kinase substrate, was purchased from the Sigma Company.
VEGF Receptor tyrosine kinase (90 ng/measuring point) was incubated for 10 minutes at 22° C. in the presence of various concentrations of test substances (0 μmol, as well as within the range of 0.001-30 μM) in 30 μl of assay buffer [40 mmol of Tris/HCl […], 10 mmol of MgCl2, 1 mmol of MnCl2, 3 μmol of Na orthovanadate, 1.0 mmol of dithiothreitol, 8 μmol of adenosine trisphosphate (ATP), 27 μg/measuring point of poly-(Glu4Tyr), 0.2 μCi/measuring point of ^33P-gamma ATP, 1% dimethyl sulfoxide]. The reaction was stopped by adding EDTA solution (250 mmol, pH 7.0, 10 μl/measuring point).
From each reaction batch, 10 μl was applied to P30 filter strips (Wallac Company), and non-incorporated 33P-ATP was removed by subjecting the filter strips to three washing cycles for 10 minutes each in 0.5% phosphoric acid. After the filter strips were dried for 1 hour at 70° C., the filter strips were covered with scintillator strips (MeltiLex™ A, Wallac Company) and baked on for 1 hour at 90° C. The amount of incorporated 33P (substrate phosphorylation) was determined by scintillation measurement in a gamma-radiation measuring device (Wallac).

[5] = tested on: H460; assay: Proliferation assay H460; format: cell-based; conditions: Homo sapiens, NCI-H460, 96 h; Table II; 4 days incubation, crystal violet
Text: as §1

[6] = tested on: HCT116; assay: Proliferation assay HCT116; format: cell-based; conditions: Homo sapiens, HCT-116, 96 h; Table II; 4 days incubation, crystal violet
Text: as §1

[7] = tested on: DU145; assay: Proliferation assay DU145; format: cell-based; conditions: Homo sapiens, DU-145, 96 h; Table II; 4 days incubation, crystal violet
Text: as §1

[8] = tested on: MaTu-ADR; assay: Proliferation assay MaTu-ADR; format: cell-based; conditions: Homo sapiens, 96 h, read-out: Proliferation IC50 MaTu-ADR
Text: as §1

[9] = Table I, read-out: CDK2/CycE IC50
[10] = Table II, read-out: Inhibition IC50 CDK2/CycE
[11] = Table II, read-out: Proliferation IC50 MCF7
[12] = Table II, 4 days incubation, crystal violet

SMILES: O=S1(=O)NCC(O)CNc2nc(ncc2Br)Nc2cccc1c2 (racemic) [Example 1.2, rac-1^5-Bromo-4-thia-2,5,9-triaza-1(2,4)-pyrimidina-3(1,3)-benzenacyclononaphan-7-ol-4,4-dioxide]
- IC50 [1, 9]: 510 nM
- IC50 [2]: 40 nM
- IC50 ([3]; Table I, read-out: MCF7 IC50): 2600 nM

SMILES: O=S1(=O)NCCC(CO)Nc2nc(ncc2Br)Nc2cccc1c2 (single isomer, unassigned) [1.3 (+) Enantiomer]
- IC50 [1, 9]: 23 nM
- IC50 [4]: 69 nM
- IC50 ([3]; Table I, read-out: MCF7 IC50): 900 nM

SMILES: O=S1(=O)NCCC(CO)Nc2nc(ncc2Br)Nc2cccc1c2 (single isomer, unassigned) [Example 1.3 (+) Enantiomer]
- IC50 [1, 10]: 23 nM
- IC50 [3, 11]: 900 nM
- IC50 [5]: 2100 nM
- IC50 [6]: 1400 nM
- IC50 [7]: 4000 nM
- IC50 [8, 12]: 4000 nM

SMILES: O=S1(=O)NCCCCCNc2nc(ncc2Br)Nc2cccc1c2 [Example 1.0, 1^5-Bromo-4-thia-2,5,11-triaza-1(2,4)-pyrimidina-3(1,3)-benzenacycloundecaphane 4,4-dioxides]
- IC50 [1, 9]: 420 nM
- IC50 [1, 10]: 420 nM
- IC50 [2]: 200 nM
- IC50 ([3]; Table I, read-out: MCF7 IC50): 1100 nM
- IC50 [3, 11]: 1100 nM
- IC50 [5]: 1800 nM
- IC50 [6]: 1300 nM
- IC50 [7]: 2000 nM
- IC50 [8, 12]: 700 nM

SMILES: O=S1(=O)NCCCNc2nc(ncc2Br)Nc2cccc1c2 [Example 1.1, 1^5-Bromo-4-thia-2,5,9-triaza-1(2,4)-pyrimidina-3(1,3)-benzenacyclononaphane-4,4-dioxide]
- IC50 [2]: 20 nM
- IC50 [4]: 40 nM
- IC50 ([3]; Table I, read-out: MCF7 IC50): 200 nM
- IC50 [5]: 300 nM
- IC50 [6]: 200 nM
- IC50 [7]: 2200 nM
- IC50 [8]: 120 nM

SMILES: Nc1cc2cc(c1)S(=O)(=O)NCCCNc1nc(ncc1Br)N2 [Example 1.4, 1^5-Bromo-4-thia-2,5,9-triaza-1(2,4)-pyrimidina-3(1,3)-benzenacyclononaphan-3^5-amine-4,4-dioxides]
- IC50 [4]: 11 nM
- IC50 ([3]; Table I, read-out: MCF7 IC50): 400 nM
- IC50 [3, 11]: 400 nM
- IC50 [5]: 200 nM
- IC50 [6]: < 100 nM
- IC50 [7]: 700 nM
- IC50 [8, 12]: 100 nM

SMILES: O=S1(=O)NCCCOc2nc(ncc2Br)Nc2cccc1c2 [Example 3.0, 1^5-Bromo-9-oxa-4-thia-2,5-diaza-1(2,4)-pyrimidina-3(1,3)-benzenacyclononaphane-4,4-dioxide]
- IC50 [1, 9]: 160 nM
- IC50 [2]: 50 nM
- IC50 [4]: 89 nM
- IC50 ([3]; Table I, read-out: MCF7 IC50): 1600 nM

SMILES: N#Cc1cnc2nc1NCCCNS(=O)(=O)c1cccc(c1)N2 [Example 5.0, 1^5-Cyano-4-thia-2,5,9-triaza-1(2,4)-pyrimidina-3(1,3)-benzenacyclononaphane 4,4-dioxide]
- IC50 [2]: 300 nM

SMILES: Brc1cnc2nc1NCCCCOc1cccc(c1)N2 [Example 7.1, 1^5-Bromo-4-oxa-2,9-diaza-1(2,4)-pyrimidina-3(1,3)-benzenacyclononaphane]
- IC50 [1, 10]: 2400 nM
- IC50 [3, 11]: 4000 nM

Continued, in another order:

- IC50 [1, 9]: 120 nM
- IC50 [2]: 360 nM
- IC50 ([3]; Table I, read-out: MCF7 IC50): 6000 nM
SMILES: O=C1NCCCNc2nc(ncc2Br)Nc2cccc(c2)N1 [Example 10.0, 1^5-Bromo-2,4,6,10-tetraaza-1(2,4)-pyrimidina-3(1,3)-benzenacyclodecaphan-5-one]

- IC50 [1, 10]: 5000 nM
SMILES: CCc1cnc2nc1NCCCCCNS(=O)(=O)c1cccc(c1)N2 [Example 14.2]

- IC50 [1, 9]: 250 nM
- IC50 [1, 10]: 2000 nM
- IC50 [2]: 1700 nM
- IC50 ([3]; Table I, read-out: MCF7 IC50): 4000 nM
SMILES: O=S1(=O)NCCCC[C@@H](CO)Nc2nc(ncc2Br)Nc2cccc1c2 [Example 14.4]

- IC50 [1, 9]: 320 nM
- IC50 [1, 10]: 320 nM
- IC50 [2]: 90 nM
- IC50 ([3]; Table I, read-out: MCF7 IC50): 700 nM
- IC50 [3, 11]: 700 nM
- IC50 [5]: 700 nM
- IC50 [6]: 500 nM
- IC50 [7]: 1700 nM
SMILES: O=S1(=O)NCCCCNc2nc(ncc2Br)Nc2cccc1c2 [Example 14.6]
- IC50 [8, 12]: 300 nM

- IC50 [2]: 200 nM
SMILES: O=S1(=O)NCCC(O)CNc2nc(ncc2Br)Nc2cccc1c2 (centres unmarked) [Example 14.8]

- IC50 [1, 9]: 65 nM
- IC50 [4]: 190 nM
- IC50 ([3]; Table I, read-out: MCF7 IC50): 1900 nM
- IC50 [3, 11]: 300 nM
- IC50 [5]: 100 nM
- IC50 [6]: 100 nM
- IC50 [7]: 400 nM
SMILES: O=S1(=O)NCCCCNc2nc(ncc2Br)Nc2csc1c2 [Example 14.10]

- IC50 [1, 9]: 2400 nM
- IC50 [1, 10]: 2400 nM
- IC50 [2]: 200 nM
- IC50 ([3]; Table I, read-out: MCF7 IC50): 750 nM
- IC50 [3, 11]: 750 nM
- IC50 [5]: 900 nM
- IC50 [6]: 700 nM
- IC50 [7]: 900 nM
SMILES: NS(=O)(=O)c1ccc2cc1OCCCCCNc1nc(ncc1Br)N2 [Example 14.11]
- IC50 [8, 12]: 1300 nM

- IC50 [1, 9]: 130 nM
- IC50 [1, 10]: 1500 nM
- IC50 [2]: 1500 nM
- IC50 ([3]; Table I, read-out: MCF7 IC50): 1300 nM
- IC50 [3, 11]: 1300 nM
- IC50 [5]: 1200 nM
- IC50 [6]: 1000 nM
- IC50 [7]: 1200 nM
SMILES: O=S1(=O)N[C@H]2CC[C@@H](CC2)Nc2nc(ncc2Br)Nc2cccc1c2 [Example 14.15]
- IC50 [8, 12]: 1300 nM

- IC50 [1, 9]: 4400 nM
- IC50 [2]: 300 nM
- IC50 ([3]; Table I, read-out: MCF7 IC50): > 10000 nM
SMILES: Cc1ccc2cc1S(=O)(=O)NCCCNc1nc(ncc1Br)N2 [Example 14.16]

- IC50 [1, 9]: 30 nM
- IC50 [2]: 80 nM
- IC50 [4]: 370 nM
- IC50 ([3]; Table I, read-out: MCF7 IC50): 2100 nM
SMILES: OCC1CCCOc2cccc(c2)Nc2ncc(Br)c(n2)N1 (centres unmarked) [Example 14.18]
